# From patent US20230139445A1, “BACTERIAL CELLS WITH IMPROVED TOLERANCE TO DIACIDS” (priority 2016, published 2023)
# “And” between values parts separate entries of the source, which are not always exact repeats. Identical values can stand only once.
# Key:
# Type in all cases: cell-based
# [1] = tested on: Escherichia coli K-12 MG1655 evolved isolates and knockout mutants; test: Biolector growth screening of evolved isolates and reconstructed (knockout) mutants in glutaric or adipic acid
# Experimental: Biological triplicate cultures of each strain were grown to saturation overnight in 96 well deepwell plates containing 300 μL M9+1% glucose. The next day, cells were diluted 1:10 in deionized water in a clear 96 well plate and the OD600 was measured on a BioTek plate reader. 48 well FlowerPlates containing a final volume of 1.4 mL of M9+1/o glucose (plus relevant chemical) were inoculated to OD600 0.03 (with plate reader pathlength, 200 μL volume) with the overnight culture and sealed with Breathseal film. Light backscatter intensity was monitored in a Biolector microbioreactor system at 37° C. with 1000 rpm shaking.
# Each re-sequenced isolate was characterized using the Biolector system for growth at the screening concentration of chemical (47.5 g/L glutaric acid or 50 g/L adipic acid) in biological triplicates.
# [2] = tested on: Escherichia coli K-12 MG1655 knockout mutants; test: Growth Profiler growth screening of K-12 MG1655 single, double and triple knockout mutants in glutaric or adipic acid
# [3] = tested on: Escherichia coli K-12 MG1655; test: Screening for tolerance in wild-type cells: growth in varying concentrations of neutralized diacid, Biolector; settings: for tlag (lag time), mean / μ (growth rate), mean: neutralized with sodium hydroxide
# Experimental: Escherichia coli K-12 MG1655 was grown overnight in M9 minimal medium+1% glucose and subcultured the following morning to an initial OD600 of 0.05 in M9+1% glucose. Cells were grown to mid-exponential phase (OD600 0.7-1.0) and were back-diluted with fresh medium to an OD600 of 0.7. The diluted cells were used to inoculate M9+1% glucose containing varying concentrations of glutaric acid or adipic acid which were neutralized to pH 7.0 with sodium hydroxide, and growth was measured in FlowerPlates in a Biolector microbioreactor system (m2p-labs) at 37° C. with 1000 rpm shaking. The culture volume in each well was 1.4 mL.
# [4] = strain ADIP1-1, M9 + 50 g/L adipic acid (neutralized with sodium hydroxide)
# [5] = strain ADIP1-9, M9 + 50 g/L adipic acid (neutralized with sodium hydroxide)
# [6] = strain ADIP2-5, M9 + 50 g/L adipic acid (neutralized with sodium hydroxide)
# [7] = strain ADIP2-6, M9 + 50 g/L adipic acid (neutralized with sodium hydroxide)
# [8] = strain ADIP2-10, M9 + 50 g/L adipic acid (neutralized with sodium hydroxide)
# [9] = strain ADIP3-2, M9 + 50 g/L adipic acid (neutralized with sodium hydroxide)
# [10] = strain ADIP3-4, M9 + 50 g/L adipic acid (neutralized with sodium hydroxide)
# [11] = strain ADIP3-8, M9 + 50 g/L adipic acid (neutralized with sodium hydroxide)
# [12] = strain ADIP4-8, M9 + 50 g/L adipic acid (neutralized with sodium hydroxide)
# [13] = strain ADIP5-2, M9 + 50 g/L adipic acid (neutralized with sodium hydroxide)
# [14] = strain ADIP5-6, M9 + 50 g/L adipic acid (neutralized with sodium hydroxide)
# [15] = strain ADIP6-3, M9 + 50 g/L adipic acid (neutralized with sodium hydroxide)
# [16] = strain ADIP6-9, M9 + 50 g/L adipic acid (neutralized with sodium hydroxide)
# [17] = strain ADIP6-10, M9 + 50 g/L adipic acid (neutralized with sodium hydroxide)
# [18] = strain ADIP7-2, M9 + 50 g/L adipic acid (neutralized with sodium hydroxide)
# [19] = strain ADIP7-5, M9 + 50 g/L adipic acid (neutralized with sodium hydroxide)
# [20] = strain ADIP8-3, M9 + 50 g/L adipic acid (neutralized with sodium hydroxide)
# [21] = strain ADIP8-7, M9 + 50 g/L adipic acid (neutralized with sodium hydroxide)
# [22] = strain ADIP8-10, M9 + 50 g/L adipic acid (neutralized with sodium hydroxide)
# [23] = strain MG1655-1, M9 + 50 g/L adipic acid (neutralized with sodium hydroxide)
# [24] = strain MG1655, M9 + 25 g/L adipate (neutralized)
# [25] = strain MG1655, M9 + 50 g/L adipate (neutralized)
# [26] = strain MG1655 kgtP::kan, M9 + 25 g/L adipate (neutralized)
# [27] = strain MG1655 kgtP::kan, M9 + 50 g/L adipate (neutralized)
# [28] = strain MG1655 ΔkgtP proV::kan, M9 + 25 g/L adipate (neutralized)
# [29] = strain MG1655 ΔkgtP pstS::kan, M9 + 25 g/L adipate (neutralized)
# [30] = strain MG1655 ΔkgtP pstS::kan, M9 + 50 g/L adipate (neutralized)
# [31] = strain MG1655 ΔkgtP sspA::kan, M9 + 25 g/L adipate (neutralized)
# [32] = strain MG1655 ΔkgtP ΔproV nagC::kan, M9 + 25 g/L adipate (neutralized)
# [33] = strain MG1655 ΔkgtP ΔproV nagC::kan, M9 + 50 g/L adipate (neutralized)
compound,measurement,setting,value
O=C(O)CCCCC(=O)O [adipic acid],mean growth rate μ,[1]; [4],0.315 h⁻¹
same,mean lag time tlag,[1]; [4],16.6 h
same,mean growth rate μ,[1]; [5],0.274 h⁻¹
same,mean lag time tlag,[1]; [5],5.8 h
same,mean growth rate μ,[1]; [6],0.332 h⁻¹
same,mean lag time tlag,[1]; [6],20.1 h
same,mean growth rate μ,[1]; [7],0.337 h⁻¹
same,mean lag time tlag,[1]; [7],22.1 h
same,mean growth rate μ,[1]; [8],0.326 h⁻¹
same,mean lag time tlag,[1]; [8],20.8 h
same,mean growth rate μ,[1]; [9],0.295 h⁻¹
same,mean lag time tlag,[1]; [9],16.6 h
same,mean growth rate μ,[1]; [10],0.305 h⁻¹
same,mean lag time tlag,[1]; [10],23.3 h
same,mean growth rate μ,[1]; [11],0.295 h⁻¹
same,mean lag time tlag,[1]; [11],20.1 h
same,mean growth rate μ,[1]; [12],0.332 h⁻¹
same,mean lag time tlag,[1]; [12],6.8 h
same,mean growth rate μ,[1]; [13],0.401 h⁻¹
same,mean lag time tlag,[1]; [13],4.7 h
same,mean growth rate μ,[1]; [14],0.370 h⁻¹
same,mean lag time tlag,[1]; [14],14.4 h
same,mean growth rate μ,[1]; [15],0.280 h⁻¹
same,mean lag time tlag,[1]; [15],6.5 h
same,mean growth rate μ,[1]; [16],0.279 h⁻¹
same,mean lag time tlag,[1]; [16],6.8 h
same,mean growth rate μ,[1]; [17],0.284 h⁻¹
same,mean lag time tlag,[1]; [17],7.1 h
same,mean growth rate μ,[1]; [18],0.189 h⁻¹
same,mean lag time tlag,[1]; [18],7.6 h
same,mean growth rate μ,[1]; [19],0.292 h⁻¹
same,mean lag time tlag,[1]; [19],19.3 h
same,mean growth rate μ,[1]; [20],0.201 h⁻¹
same,mean lag time tlag,[1]; [20],6.0 h
same,mean growth rate μ,[1]; [21],0.206 h⁻¹
same,mean lag time tlag,[1]; [21],7.2 h
same,mean growth rate μ,[1]; [22],0.200 h⁻¹
same,mean lag time tlag,[1]; [22],6.8 h
same,mean growth rate μ,[1]; [23],0.133 h⁻¹
same,mean lag time tlag,[1]; [23],21.4 h
same,mean growth rate μ,[2]; [24],0.467 h⁻¹
same,mean lag time tlag,[2]; [24],6.9 h
same,mean growth rate μ,[2]; [25],0.115 h⁻¹
same,mean lag time tlag,[2]; [25],25.7 h
same,mean growth rate μ,[2]; [26],0.534 h⁻¹
same,mean lag time tlag,[2]; [26],6.4 h
same,mean growth rate μ,[2]; [27],0.192 h⁻¹
same,mean lag time tlag,[2]; [27],17.5 h
same,mean growth rate μ,[2]; [28],0.583 h⁻¹
same,mean lag time tlag,[2]; [28],6.2 h
same,mean growth rate μ,[2]; [29],0.465 h⁻¹
same,mean lag time tlag,[2]; [29],7.6 h
same,mean growth rate μ,[2]; [30],0.139 h⁻¹
same,mean lag time tlag,[2]; [30],21.3 h
same,mean growth rate μ,[2]; [31],0.525 h⁻¹
same,mean lag time tlag,[2]; [31],6.8 h
same,mean lag time tlag,"[2]; strain MG1655 ΔkgtP sspA::kan, M9 + 50 g/L adipate (neutralized)",49.2 h
same,mean growth rate μ,[2]; [32],0.501 h⁻¹
same,mean lag time tlag,[2]; [32],6.8 h
same,mean growth rate μ,[2]; [33],0.213 h⁻¹
same,mean lag time tlag,[2]; [33],19.7 h
same,"tlag (lag time), mean",[3]; 10 g/L,1.0 h
same,"μ (growth rate), mean","[3]; 10 g/L, M9+1% glucose, 37° C",0.575 h⁻¹
same,"tlag (lag time), mean",[3]; 20 g/L,1.3 h
same,"μ (growth rate), mean",[3]; 20 g/L,0.494 h⁻¹
same,"tlag (lag time), mean",[3]; 30 g/L,1.8 h
same,"μ (growth rate), mean",[3]; 30 g/L,0.367 h⁻¹
same,"tlag (lag time), mean",[3]; 40 g/L,4.0 h
same,"μ (growth rate), mean",[3]; 40 g/L,0.263 h⁻¹
same,"tlag (lag time), mean",[3]; 50 g/L,2.4 h
same,"μ (growth rate), mean",[3]; 50 g/L,0.120 h⁻¹
same,"tlag (lag time), mean",[3]; 75 g/L,27 h and 27.2 h
same,"μ (growth rate), mean",[3]; 75 g/L,0.203 h⁻¹
same,"μ (growth rate), mean",[3]; 100 g/L,0.000 h⁻¹
same,maximum measured concentration at which exponentially growing K-12 MG1655 can grow,[3]; neutralized diacid in M9+1% glucose,75 g/L
